Assay results as given in EPA's ToxValDB 9.5 (doi:10.2903/j.efsa.2013.3243).
Converted amounts (≈) assume the structure as drawn.

Tests used:
Aphidius rhopalosiphi = test: LR50; higher = less toxic; settings: acute; duration: 48 hours; mortality
Typhlodromus pyri = test: LR50; higher = less toxic; settings: acute; duration: 7 days; mortality
Pimephales promelas = settings: chronic/long-term; duration: 33 days; other
Daphnia magna = settings: chronic/long-term; duration: 21 days; mobility
Cyprinodon variegatus = settings: acute; duration: 96 hours; mortality
Canidae = settings: chronic; duration: 52 weeks; oral; Dog Other; organ weight
Anas platyrhynchos = settings: reproductive
Bibionidae = settings: chronic/long-term; duration: 21 days; other
Colinus virginianus = settings: acute, oral, mortality
Tagia sp. = settings: acute; duration: 14 days; mortality
Apis mellifera = settings: acute, duration: 48 hours, mortality

CCOC(=O)OC1=C(c2cc(C)ccc2C)C(=O)NC12CCC(OC)CC2 (stereo unspecified) [Spirotetramat]
LR50 (Aphidius rhopalosiphi): 115 g/ha
LR50 (Typhlodromus pyri): 0.333 g/ha
NOEC (Pimephales promelas): 0.534 mg/L
NOEC (Daphnia magna): 2 mg/L
LC50 (Cyprinodon variegatus): 1.96 µg/mL (≈ 5.25 µM)
NOAEL (Rattus norvegicus; acute, clinical signs): 100 mg/kg-day
LD50 (Rattus norvegicus; acute, oral, mortality): > 2000 mg/kg-day
NOAEL (Rattus norvegicus; reproduction developmental, body weight): 70 mg/kg-day
NOAEL (Canidae): 5 mg/kg-day
NOAEL (Anas platyrhynchos): 4 mg/kg-day
NOEC (Bibionidae): 0.1 mg/L
LC50 (Colinus virginianus; diet): > 475 mg/kg-day
LD50 (Colinus virginianus): > 2000 mg/kg-day
LC50 (Tagia sp.): > 1000 mg/kg
LD50 (Apis mellifera; dermal): > 100 µg/piece
LD50 (Apis mellifera; oral, unspecified): > 107 µg/piece
